From paper PMC5940854, “Nitrothiophene carboxamides, a novel narrow spectrum antibacterial series: Mechanism of action and Efficacy” (Scientific Reports, 2018)
Converted amounts (≈) assume the structure as drawn. “And” between values parts separate entries of the source, which are not always exact repeats. Equal values may be shown once.

Legend:
[1] = biological target: T1, AcrB efflux pump in E. coli BW25113 (Escherichia coli, UniProt P31224); experiment: Nile red efflux assay (whole-cell competition); format: cell-based; conditions: for Concentration of compound required for complete inhibition of Nile red efflux (Tefflux50 >200 seconds): E. coli BW25113
T1 construct: endogenous in cells; host or cells: E. coli BW25113 (wild type)
T1 sequence (P0AE06 25-397): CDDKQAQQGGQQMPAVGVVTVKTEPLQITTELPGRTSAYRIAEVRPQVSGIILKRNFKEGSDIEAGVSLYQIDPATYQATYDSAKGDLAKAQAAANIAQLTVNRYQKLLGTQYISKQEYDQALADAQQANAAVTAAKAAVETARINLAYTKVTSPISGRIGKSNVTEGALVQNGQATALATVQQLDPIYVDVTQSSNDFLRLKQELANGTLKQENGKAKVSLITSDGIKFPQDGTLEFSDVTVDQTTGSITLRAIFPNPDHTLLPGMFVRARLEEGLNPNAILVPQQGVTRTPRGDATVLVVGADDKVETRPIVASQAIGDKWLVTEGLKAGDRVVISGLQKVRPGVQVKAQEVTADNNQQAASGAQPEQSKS
T1 sequence (P31224 whole entry): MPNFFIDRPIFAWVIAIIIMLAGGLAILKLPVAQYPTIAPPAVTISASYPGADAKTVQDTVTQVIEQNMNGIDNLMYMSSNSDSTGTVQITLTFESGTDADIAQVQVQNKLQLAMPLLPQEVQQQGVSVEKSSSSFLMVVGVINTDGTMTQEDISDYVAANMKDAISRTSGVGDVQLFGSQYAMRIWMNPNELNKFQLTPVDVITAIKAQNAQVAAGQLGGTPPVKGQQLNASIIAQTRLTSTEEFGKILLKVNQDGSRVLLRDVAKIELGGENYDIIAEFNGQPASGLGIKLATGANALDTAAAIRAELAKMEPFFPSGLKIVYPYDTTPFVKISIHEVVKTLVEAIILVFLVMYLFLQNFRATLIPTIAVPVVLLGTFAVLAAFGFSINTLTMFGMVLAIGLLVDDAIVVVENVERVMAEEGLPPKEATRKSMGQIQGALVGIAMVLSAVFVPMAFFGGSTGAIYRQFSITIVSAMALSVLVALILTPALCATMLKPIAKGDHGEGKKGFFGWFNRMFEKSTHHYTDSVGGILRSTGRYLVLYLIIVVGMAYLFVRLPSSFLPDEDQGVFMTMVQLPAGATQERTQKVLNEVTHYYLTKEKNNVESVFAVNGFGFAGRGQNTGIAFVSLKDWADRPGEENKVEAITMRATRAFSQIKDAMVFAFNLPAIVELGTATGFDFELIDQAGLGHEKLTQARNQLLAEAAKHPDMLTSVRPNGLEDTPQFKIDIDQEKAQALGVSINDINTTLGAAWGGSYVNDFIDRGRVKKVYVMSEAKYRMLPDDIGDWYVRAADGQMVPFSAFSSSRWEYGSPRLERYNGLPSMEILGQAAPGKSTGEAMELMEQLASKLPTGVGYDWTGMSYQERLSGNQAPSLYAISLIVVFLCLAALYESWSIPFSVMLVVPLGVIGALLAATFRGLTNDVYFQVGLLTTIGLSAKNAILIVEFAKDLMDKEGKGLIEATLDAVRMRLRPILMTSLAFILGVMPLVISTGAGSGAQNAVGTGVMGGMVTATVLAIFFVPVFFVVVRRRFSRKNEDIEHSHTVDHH
T1 sequence (P02930 23-493, further chain): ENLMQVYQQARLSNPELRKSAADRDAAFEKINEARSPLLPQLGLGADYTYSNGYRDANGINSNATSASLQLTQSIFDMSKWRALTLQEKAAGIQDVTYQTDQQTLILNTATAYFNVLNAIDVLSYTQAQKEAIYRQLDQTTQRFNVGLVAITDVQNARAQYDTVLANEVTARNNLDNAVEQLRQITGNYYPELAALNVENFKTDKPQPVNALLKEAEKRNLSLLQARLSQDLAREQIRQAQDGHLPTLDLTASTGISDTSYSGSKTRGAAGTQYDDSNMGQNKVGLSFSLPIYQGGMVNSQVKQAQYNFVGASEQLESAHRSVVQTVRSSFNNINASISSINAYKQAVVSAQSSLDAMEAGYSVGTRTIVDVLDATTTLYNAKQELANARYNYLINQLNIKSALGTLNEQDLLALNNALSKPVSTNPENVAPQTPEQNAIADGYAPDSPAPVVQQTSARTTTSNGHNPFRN
Description: The Nile red assay is adopted from Bohnert et al.[18]. An overnight culture of E. coli strain BW25113 is harvested and is resuspended in 20 mM potassium phosphate buffer (pH 7.0) containing 1 mM MgCl2 (PPB). The cells are adjusted to an A660 of 1.0 in PPB and aliquoted into glass tubes (2 ml each). Carbonylcyanide-m-chlorophenylhydrazone (CCCP; a protonophore that uncouples the electron transport chain and thus inhibits AcrB mediated efflux) is added to a final concentration of 10 µM (5 mM stock solution in 50% DMSO) and incubated for 15 minutes before adding the potential competitor at desired concentrations. Nile red is then added (stock solution of 5 mM in 10% dimethyl formamide-90% ethanol [vol/vol]) to a final concentration of 5 µM. The cell suspension is incubated at room temperature on a shaker for 3 hours. The cells are harvested and resuspended in 2 ml PPB in the presence of the competitor. The cell suspension is aliquoted in a fluorimeter cuvette, to which, 100 µl of 1 M Glucose is added to activate the electron transport chain. The rate of efflux is measured by Tefflux50, it is the time taken for 50% of Nile red to be effluxed out in presence of the compounds. The fluorescence is measured (Excitation 552 nm, Emission 636 nm) for 200 seconds.

[2] = Intravenous pharmacokinetics; format: in vivo, BALB/c mice; conditions: for AUC / AUC(0-inf) / AUC(0-t) / clearance / half-life / Vd: BALB/c, mouse, in vivo; for AUC: iv, 2 mg/kg, used for estimation of oral bioavailability; for AUC(0-inf) / AUC(0-t) / clearance / half-life / Vd / AUMC0-∞ / Clast / Kel(β) / extr AUC: mice, single IV dose 2 mg/kg; for Vd: read-out: Vss; for condition of mice post dose and throughout the study: single intravenous dose of 2 mg/kg or single oral dose of 10 mg/kg
Description: The test substances were formulated in the vehicle DMSO: PEG400: Ethanol (absolute): Water at ratio of 10:40:20:30 (v/v). The required quantity of test compound was weighed, transferred into a vial and dissolved using the appropriate volumes of DMSO, PEG400, Ethanol (absolute) and sterile water in a sequential manner until a clear solution was obtained. The test substance was administered intravenously as a bolus via the tail vein at a dose volume of 5 ml/kg.
At 5 min, 15 min, 30 min, 1 h, 2 h, 4 h, 8 h, and 24 h time points, and prior to sampling, mice were anaesthetized with isoflurane. From each mouse, two blood samples were drawn; the 1st was non-terminal (0.1 ml) and the 2nd terminal, by retro-orbital plexus puncture using heparanised capillary tubes. Blood was collected in 2 ml Eppendorf tubes containing 0.01 ml of 10% K2EDTA as anticoagulant, mixed gently and placed in ice before centrifugation. Blood was centrifuged at 10,000 rpm for 5 min, and plasma was harvested and stored at −80 °C until bioanalysis.
Ultrafast liquid chromatography mass spectrometric method was used for the estimation of test compounds in pre-clinical study samples. The analysis was performed using an API 4000 LC-MS/MS system. The interface used with the API 4000 LC-MS/MS was a Turbo Ion spray. The positive ions were measured in MRM mode. The analyte was extracted using a solid-phase extraction procedure. The data was acquired by and integrated using the Applied Biosystems “Analyst” version 1.5.2 software. Linear regression, with 1/x^2 weighting was used for calibration.
Non-compartmental (NCA) PK analysis was performed using MS Excel. The linear trapezoidal rule was used to estimate the AUC. The NCA analysis was performed using the following equations (3) on mean concentration time data: AUC=Σ[(Ci1+Ci2)/2]∗[ti2−ti1] AUMC=Σ[((Ci1∗ti1)+(Ci2∗ti2))/2)∗(ti2−ti1)] AUCt−∞=Clast/Kel AUC0−∞=AUC0−t+AUCt−∞ AUCextrapolated(%)=[AUCt−∞/AUC0−∞]∗100 where, Ci1 and Ci2 are the concentrations at times ti1 and ti2, respectively. Kel=ln(Cx/Cy)/(ty−tx) where, Kel is the first order elimination rate constant, ln is the natural logarithm, Cx and Cy are the first and last concentrations, respectively on the linear portion of the terminal phase of the concentration-time profile, and ty and tx are the corresponding time points. T1/2=0.693/Kel Cl=Doseiv/AUC0−∞ Vss=(AUMC0−∞/AUC0−∞)∗(Doseiv/AUC0−∞) Cmax and tmax were visually estimated from the mean oral conc-time profile F(%)=(AUCpo/AUCiv)∗(Doseiv/Dosepo)∗100

[3] = tested on: clinical isolate of E. coli (Strain No. 371); experiment: Neutropenic thigh infection, E. coli clinical isolate; format: in vivo, BALB/c mice; conditions: for Log10CFU Mean Diff. vs. Untreated Controls: Study TI-2014-023, Clinical Isolate N. 371, 100mg/kg per oral; for efficacy in thigh infection model (in words): clinical isolate of E. coli
[4] = tested on: Klebsiella pneumoniae ATCC13883; experiment: MIC, Klebsiella pneumoniae; format: cell-based; conditions: for MIC Klebsiella pneumoniae: ATCC13883; for fold lower potency in comparison to E. coli WT MIC: WT K. pneumoniae ATCC strain
Description: The inoculum used for all the experiments is derived from a single seed lot that is maintained as glycerol stocks at −80 °C and are sub cultured on LB plate for isolated colonies. Single colony of each strain is grown in M9 medium. All test compound stocks and dilutions are prepared in DMSO. Serial two-fold dilutions of compounds are prepared separately, with the concentrations ranging from 2 mg/mL to 0.015 mg/mL. To 150 µl (3–7 × 10^5 CFU/ml) of bacterial culture in 96 well microtitre plates, 3 μL compound from each of the dilutions is added to respective wells to obtain final concentrations ranging from 40 µg/mL to 0.3 µg/mL of the test compounds. Media control, culture control and appropriate reference drug controls are included. […] Growth is monitored by checking absorbance at 600 nm (A600). […] The samples from MIC and above concentrations are plated for MBC (Minimum Bactericidal Concentration). The samples are diluted 1:10 and plated on LB agar plates. […] The killing kinetics is determined by enumerating survivors at various time points following compound exposure. E. coli cells (~10^7 CFU/ml; A600 of 0.1) are treated with various concentrations (40 µg/mL to 0.3 µg/mL) of compounds in a 96-well microtitre plate. At various time intervals (0 to 8 h), 30 μl volumes of treated cultures are serially diluted and plated on LB agar plates. […] Data is expressed as the log10 CFU for each drug treatment.

[5] = 1µM compound, time for 50% of Nile red to be effluxed, read for 200 seconds

| SMILES | Tefflux50 [1, 5] | Tefflux50 ([1]; 9µM compound) | Tefflux50 ([1]; 27µM compound) | Tefflux50 ([1]; 81µM compound) | Tefflux50 ([1]; 100µM compound) | Tefflux50 ([1]; 200µM compound) | Tefflux50 ([1]; 400µM compound) | Concentration of compound required for complete inhibition of Nile red efflux (Tefflux50 >200 seconds) [1] | AUC [2] | AUC(0-inf) [2] | AUC(0-t) [2] | clearance [2] | half-life [2] | Vd [2] | AUMC0-∞ [2] | Clast [2] | Kel(β) [2] | extr AUC [2] | MIC Klebsiella pneumoniae [4] | fold lower potency in comparison to E. coli WT MIC [4] | further results |
| --- | --- | --- | --- | --- | --- | --- | --- | --- | --- | --- | --- | --- | --- | --- | --- | --- | --- | --- | --- | --- | --- |
| Cc1sc(NC(=O)c2ccc([N+](=O)[O-])s2)nc1-c1ccccc1 [compound 7, N-(5-Methyl-4-phenylthiazol-2-yl)-5-nitrothiophene-2-carboxamide] | 88.05 s | 200 s | 200 s | 200 s | 200 s | 200 s | 200 s | 9 µM |  |  |  |  |  |  |  |  |  |  |  |  |  |
| O=C(Nc1nc(-c2ccc(F)cc2F)cs1)c1ccc([N+](=O)[O-])s1 [compound 12, N-(4-(2,4-difluorophenyl)thiazol-2-yl)-5-nitrothiophene-2-carboxamide] | 66.41 s | 67.52 s | 67.98 s | 68.06 s | 68.17 s | 68.34 s | 68 s and 68.25 s | > 400 µM | 570 ng·h/mL | 570 ng·h/mL | 570 ng·h/mL | 58.7 mL/min/kg | 36 min | 1.64 L/kg | 0.26 | 3 ng/mL | 1.18 ^-h | 0.4% | 2.5 µg/mL (≈ 6.81 µM) | 4-8 fold | condition of mice post dose and throughout the study [2]: visibly normal; Log10CFU Mean Diff. vs. Untreated Controls [3]: 1.907 Log10CFU; efficacy in thigh infection model (in words) [3]: significantly bactericidal |
| O=C(Nc1nc(-c2ccc(F)cc2)cs1)c1ccc([N+](=O)[O-])s1 [compound 15, N-(4-(4-Fluorophenyl)thiazol-2-yl)-5-nitrothiophene-2-carboxamide] | 61.52 s | 72.51 s | 81.24 s | 124.25 s | 200 s | 200 s | 200 s | 100 µM | 910 ng·h/mL | 911 ng·h/mL | 900 ng·h/mL | 36.7 mL/min/kg | 30 min | 0.4 L/kg | 0.17 | 12 ng/mL | 1.51 ^-h | 0.9% | 5 µg/mL (≈ 14.3 µM) | 4-8 fold | condition of mice post dose and throughout the study [2]: visibly normal; Log10CFU Mean Diff. vs. Untreated Controls [3]: 1.553 Log10CFU; efficacy in thigh infection model (in words) [3]: significantly bactericidal |
| COc1cc(-c2csc(NC(=O)c3ccc([N+](=O)[O-])s3)n2)ccc1Cl [compound 20, N-(4-(4-chloro-3-methoxyphenyl)thiazol-2-yl)-5-nitrothiophene-2-carboxamide] | 69.24 s | 71.14 s | 72.65 s | 104.21 s | 200 s | 200 s | 200 s | 100 µM |  |  |  |  |  |  |  |  |  |  | 10 µg/mL (≈ 25.3 µM) | 4-8 fold |  |
